Measurements as given in paper PMC5124248, “Antitumor activity of TY-011 against gastric cancer by inhibiting Aurora A, Aurora B and VEGFR2 kinases” (Journal of Experimental & Clinical Cancer Research : CR, 2016).
Where “and” joins values, the source holds several entries; their conditions need not be identical. Identical values can stand only once. Entries after “also recorded” stand apart in the source; their conditions may differ. Marks after values point to notes of the source that are not given here.

Key:
[1] = test system: SGC-7901 cells; assay: Cell cycle analysis by flow cytometry, SGC-7901; format: cell-based, human
Procedure: Cell cycle distribution was determined by flow cytometry measurement of DNA content after cells were incubated with RNase A (50 μg/ml) and propidium iodide (50 μg/ml). The cellular DNA content was measured on a flow cytometer (Guava EasyCyte 6HT-2 L, Merck Millipore, Billerica, MA, USA). The percentage of each population was analyzed using the InCyte software. At least 20 000 cells were analyzed for each data point.

[2] = test system: human MGC-803 xenograft; assay: Antitumor activity in vivo, MGC-803 xenograft in nude mice; design: species or system BALB/c nu/nu mice; details: for Inhibition rate (%): by tumor weight; for Body weight (g) End / Body weight (g) Start / Tumor volume (mm^3) End / Tumor volume (mm^3) Start / Tumor weight: mean ± SEM; for Tumor weight: control 0.79 g
Procedure: The animals were housed in specific pathogen-free (SPF) conditions at Key Laboratory of Brain Functional Genomics, Ministry of Education, and were acclimatized for a week prior to use. […] When the tumors reached a mean group size of 100 ~ 150 mm^3, the mice were randomized into control and treatment groups to receive treatment accordingly. […] The tumor growth was recorded with the measurement of length (L) and width (W) by caliper every other day, and calculated as tumor volume (V) = L × W^2/2. Meanwhile, the body weights of mice were recorded. The tumor volume at day n was expressed as relative tumor volume (RTV) according to the following formula: RTV% = (TVn/TV0) ×100%, where TVn is the tumor volume at day n and TV0 is the tumor volume at day 0. The therapeutic effect of treatment was calculated with formula T/C (%) = mean RTV of the treated group/mean RTV of the control group × 100%. […] The tumor regression of individual mouse was defined as the tumor volume at the end was less than the tumor volume when treatment was initiated.

[3] = test system: p-Aurora A (T288); assay: Cellular Aurora A phosphorylation (western blot, immunofluorescence) in MGC-803 cells; format: cell-based, human
Procedure: The proteins of whole cell lysates were prepared in RIPA buffer containing protease and phosphatase inhibitors (Thermo Fisher Scientific, Waltham, MA, USA), and quantified by the bicinchoninic acid (BCA) method. Immunoblotting analysis of proteins in cell lysates was performed as previously described. Primary antibodies used were as follows: anti-Aurora A (#12100), anti-p-Aurora A (Thr288) (#3079), anti-Histone H3 (#4499), and anti-p-Histone H3 (Ser10) (#9701), and anti-cleaved caspase 3 (#9661) were purchased from Cell Signaling Technology (Danvers, MA, USA); anti-PARP-1 (#sc-8007) and anti-GAPDH (#sc-25778) were purchased from Santa Cruz (CA, USA).
Cells were cultured on glass slides coated with 0.05 mg/ml PDL (Sigma-aldrich, St. Louis, MO, USA) in the presence of TY-011 (0.8 μM) or equivalent amount of DMSO for 24 h. The cells were fixed in 4% paraformaldehyde at room temperature, then permeabilized with 0.15% Triton-X100 and blocked in 3% BSA in PBS. The primary antibodies were incubated with slides at 1:100 dilution in PBS containing 3% BSA in a wet chamber at 4 °C overnight. […] The images were captured with FCFM (fluorescence confocal microscope) (Olympus FV1000 IX81, Tokyo, Japan) under appropriate excitation and emission filters or phase-contrast microscope (Olympus IX73, Tokyo, Japan). […]

[4] = test system: 5 gastric cancer cell lines; assay: CCK-8 cell proliferation assay, panel of 5 gastric cancer cell lines; format: cell-based; details: Homo sapiens; range over SNU-16, MKN-45, MGC-803, SGC-7901, AGS; read-out: IC50 values across 5 gastric cancer cell lines
Procedure: During the logarithmic growth phase, each cell line was seeded in a 96-well tissue culture plate (Thermo Fisher Scientific, Waltham, MA, USA) at a predetermined density in complete medium, attached overnight and treated with compound for the indicated time. The medium was discarded and replaced with 10% CCK-8 (Dojindo, Kumamoto, Japan) in complete medium, then incubated the plates for another 2 h. The OD450 was measured with SpectraMax M5 (Molecular Devices, CA, USA). A background absorbance of ODblank was subtracted from all wells. The survival rate was determined with following formula: Survival rate (%) = ODcompound/ODDMSO × 100%. The IC50 values were calculated by concentration − response curve fitting using the four parameter method.

[5] = test system: HUVECs; assay: HUVEC tube formation assay; format: cell-based, human; details: HUVECs on Matrigel, 6 h
Procedure: HUVECs were seeded onto pre-cooled 96-well tissue culture plate coated with Matrigel™ (BD Biosciences, FranklinLakes, NJ). After the cells attached, the cells were treated by various concentration of TY-011 or equivalent amount of DMSO. The plate was incubated at 37 °C, 5% CO2 humidified atmosphere for 6 h, then cell morphology was captured with a microscopy (Olympus IX73, Tokyo, Japan).

[6] = 3 mg/kg oral once a day for 13 days
[7] = 6 mg/kg oral once a day for 13 days
[8] = 9 mg/kg oral once a day for 13 days

CCc1cc2c(cn1)C(c1ccccc1Cl)=Nc1c(n[nH]c1C)N2 [TY-011, 9-(2-chloro-phenyl)-6-ephyl-1-methyl-2,4-dihydro-2,3,4,7,10-pentaaza-benzo[f]azulene]
G2/M phase cells ([1]; SGC-7901, 0.5 μM, 12 h (from 31.6%)): 45.1%
cells with >4 N DNA content ([1]; SGC-7901, 0.5 μM, 48 h): 13.9%
proportion of cells with >4 N DNA content ([1]; SGC-7901, 1 μM, 24 h (6.7% no treatment)): 14.7%
proportion of G2/M phase cells ([1]; SGC-7901, 1 μM, 24 h (34.0% no treatment)): 78.6%
T/C (%) [2, 6]: 54.55%
TGI (%) [2, 6]: 59.41%
Inhibition rate (%) [2, 6]: 64.9%
Body weight (g) End [2, 6]: 21.8 ± 0.1 g
Body weight (g) Start [2, 6]: 20.8 ± 0.1 g
Tumor volume (mm^3) End [2, 6]: 433.6 ± 16.2*** mm^3
Tumor volume (mm^3) Start [2, 6]: 192.8 ± 7.1 mm^3
Tumor weight [2, 6]: 0.28 g and 0.28 ± 0.02 g
T/C (%) [2, 7]: 21.82%
TGI (%) [2, 7]: 103.77%
tumor regression (share of mice) ([2]; 6 mg/kg oral once a day for 13 days, 6/8 mice): 75%
Inhibition rate (%) [2, 7]: 87.7%
Body weight (g) End [2, 7]: 20.3 ± 0.2 g
Body weight (g) Start [2, 7]: 20.9 ± 0.1 g
Tumor volume (mm^3) End [2, 7]: 168.8 ± 7.1*** mm^3
Tumor volume (mm^3) Start [2, 7]: 191.2 ± 6.2 mm^3
Tumor weight [2, 7]: 0.10 g and 0.10 ± 0.01 g
T/C (%) [2, 8]: 14.53%
TGI (%) [2, 8]: 113.09%
tumor regression (share of mice) ([2]; 9 mg/kg oral once a day for 13 days, 8/8 mice): 100%
Inhibition rate (%) [2, 8]: 89.0%
Body weight (g) End [2, 8]: 21.7 ± 0.1 g
Body weight (g) Start [2, 8]: 21.4 ± 0.1 g
Tumor volume (mm^3) End [2, 8]: 111.4 ± 3.6*** mm^3
Tumor volume (mm^3) Start [2, 8]: 189.0 ± 4.9 mm^3
Tumor weight [2, 8]: 0.09 g and 0.09 ± 0.01 g
drug-related deaths and body weight of mice ([2]; 3, 6 and 9 mg/kg oral once a day for 13 days): did not affect the body weight of mice; also recorded: did not cause drug-related deaths or any loss in body weight of mice
damages to vital organs (heart, liver, spleen, lung and kidney) or clinical signs ([2]; mice treated with TY-011, data not shown): no obvious damages to vital organs
Aurora A green foci in mitotic cells, immunofluorescence ([3]; MGC-803, 0.8 μM, 24 h): became weaker or even disappeared
p-Aurora A (T288), western blot ([3]; MGC-803 synchronized with nocodazole (100 nM) 16 h, then various concentrations for 24 h): decreased in a concentration-dependent manner
IC50 [4]: 90 to 960 nM
tube meshes (tube formation) [5]: disturbed
